# Source: patent US8993595B2, “Macrocyclic serine protease inhibitors” (priority 2009, dated 2015)
# Columns and labels:
# hERG channel = target: T1, hERG channel (Homo sapiens, UniProt Q12809); experiment: hERG channel currents in voltage-clamped HEK293 cells; type: cell-based
# T1 construct: expressed in transfected cells; host or cells: HEK293
# From the text: (§1) One in vitro GLP safety pharmacology study evaluated the effects of compound 52 on hERG channel currents in voltage-clamped human embryonic kidney cells (HEK293) stably expressing the human ether-à-go-go-related gene (hERG) channel. Four in vivo GLP safety pharmacology studies evaluated the potential effects of the compound on the cardiovascular and respiratory systems in the cynomolgus monkey and on the central nervous, renal, and gastrointestinal systems in the CD-1 mouse at single oral doses up to 250 mg/kg of compound 52.
# [1] = target: T2, HCV NS3-4A Protease Genotype 4a (Hepatitis C virus genotype 4a, UniProt O39929); experiment: HCV protease assay, recombinant NS3-4A genotype 4a; type: biochemical; details: mean ± SD, 3 experiments
# T2 construct: recombinant HCV NS3-4A proteases
# Protocol: (§2) The compounds were tested at a variety of concentrations in assay buffer containing a final DMSO concentration of 5%. Reactions were allowed to proceed for 60 min at room temperature and fluorescence measurements were recorded with a Tecan Infinity Spectrofluorimeter. The IC50 values were determined from the percent inhibition versus concentration data using a sigmoidal non-linear regression analysis based on four parameters with Tecan Magellan software.
# (§3) Compound 52 was tested against genotypes 1a, 1b, 2a, 3a, and 4a of recombinant HCV NS3-4A proteases, along with other cellular proteases.
# [2] = MTS Cytotoxicity Assay in HPC cells; type: cell-based; details: human; HPC cells (2a virus line)
# Protocol: HPC cells were infected with JFH-1 (genotype 2a) and treated with the compound for 4 days (virus inoculum was removed after 16 hrs). Remaining virus was measured by an anti-HCV core ELISA. Compound cytotoxicity was also measured in parallel using a colorimetric proliferation assay as described in Example 5.
# The cytotoxicity assay measures the viability of cells after treatment with a test compound for 5 days. The assay readout is the bioreduction of the yellow MTS tetrazolium compound to a purple formazan product. This conversion is mediated by NADPH or NADH and is directly proportional to the number of live cells in a culture.
# Ninety-six-well Corning Costar plates were seeded with HPC cells at a density of 3.0×10^3 cells per well in 50 μL of Huh-7 media. Compound stock solutions were made up freshly in Huh-7 media as 2× stocks. Seven additional 3-fold drug dilutions were prepared from the 2× stocks in Huh-7 media for a total of 8 dilutions.
# At least 4 hours after HPC cells were seeded, 50 μL of each drug dilution was added to the cultures. […]
# After 5 days of treatment, the CellTiter 96® Aqueous One Solution cell proliferation assay was performed by adding 20 μL of MTS solution to each well. […] Plates were read at A490 nm in a Victor^3 V 1420 multilabel counter (Perkin Elmer) and CC50 concentrations were determined using Microsoft Excel and XLfit 4.1 software. […]
# [3] = system: ZlucA cell line (genotype 1b replicon selected with 10 nM compound 52, D168V); experiment: Extent of resistance after selection, luciferase assay, ZlucA; type: cell-based, HCV; details: selecting conc. 10 nM, EC50 resistant / EC50 wild-type
# Protocol: Replicon cells (genotype 1a or 1b) were treated with various concentrations of compound 52 in the presence of G418. Treatment-emergent genotypic changes were identified by population sequencing of NS3 (both protease and helicase regions). The activity of compound 52 and other compounds was evaluated by NS5A western blot after selection or luciferase assay during and after selection.
# Eight drug-resistance replicon cell lines were created by long-term culture of genotype 1b replicon cells with 10 or 25 nM of compound 52. NS3 (AAs 1-631) was sequenced at each passage.
# [4] = system: genotype 1b luciferase-replicon NS3 D168V
# Protocol: (§4) The activity of compound 52 was evaluated against replicons bearing single protease inhibitor-resistance mutations as compared to its activity against the wild-type replicon. Mutations were introduced into a genotype 1b luciferase-replicon by site-directed mutagenesis. Compound activity was measured in cells transiently transfected with in vitro transcribed wild-type or mutant luciferase-replicon RNA by luciferase assay after 4-day treatment. Replication capacity was determined in untreated transfected cells by comparing the luciferase activity at 4 hrs and 4 days post-transfection.
# [5] = system: genotype 1b luciferase-replicon NS3 Q80R
# Protocol: as §4
# [6] = system: genotype 1b luciferase-replicon NS3 R155Q
# Protocol: as §4
# [7] = system: genotype 1b luciferase-replicon NS3 A156T
# Protocol: as §4
# [8] = system: genotype 1b luciferase-replicon NS3 A156S
# Protocol: as §4
# [9] = system: genotype 1b luciferase-replicon NS3 R155K
# Protocol: as §4
# [10] = system: genotype 1b luciferase-replicon NS3 D168A
# Protocol: as §4
# [11] = system: genotype 1b luciferase-replicon NS3 D168Y
# Protocol: as §4
# [12] = system: genotype 1b luciferase-replicon NS3 T54A
# Protocol: as §4
# [13] = system: genotype 1b luciferase-replicon NS3 D168E
# Protocol: as §4
# 1b replicon = experiment: HCV replicon luciferase assay, genotype 1b; type: cell-based
# Protocol: Compound 52 was tested against genotypes 1a, 1b, and 2a in an HCV replicon assay as described in Example 2. Replicon cells (genotype 1a or 1b) were seeded onto 96-well plates, cultured for three days in the presence of the compound, and subject to a luciferase assay.
# Drug solutions were made up freshly in Huh-7 media as 2× stocks. Ten additional 5-fold dilutions were prepared from these stocks in DMEM without G418. […] Cells were then incubated at 37° C./5% CO2. […] For this, media was removed from the plates via gentle tapping. Fifty microliters of ONE-glo luciferase assay reagent was added to each well. […] The EC50 values were calculated from dose response curves from the resulting best-fit equations determined by Microsoft Excel and XLfit 4.1 software.
# [14] = system: cardiovascular and respiratory systems of monkeys; type: in vivo, cynomolgus monkey; details: oral doses up to 250 mg/kg
# From the text: as §1
# [15] = target: T3, HCV NS3-4A Protease Genotype 1b (Hepatitis C virus genotype 1b, UniProt Q9WMX2); experiment: HCV protease assay, recombinant NS3-4A genotype 1b; type: biochemical; details: mean ± SD, 3 experiments
# T3 construct: recombinant HCV NS3-4A proteases
# Protocol: as §2, §3
smiles,measurement,setting,value
"COc1ccc2c(O[C@H]3CCN4C(=O)N(C)CCCC/C=C\[C@@H]5C[C@@]5(C(=O)NS(=O)(=O)C5(C)CC5)NC(=O)[C@@H]4C3)cc(-c3nc(C(F)(F)F)cs3)nc2c1C [Compound 52, 1-methyl-cyclopropanesulfonic acid{(Z)-(1S,4R,6S,18S)-18-[7-methoxy-8-methyl-2-(4-trifluoromethyl-thiazol-2-yl)-quinolin-4-yloxy]-13-methyl-2,14-dioxo-3,13,15-triaza-tricyclo[13.4.0.0*4,6*]nonadec-7-ene-4-carbonyl}amide]",effect on cardiac hERG potassium channel current,hERG channel,did not affect
same,IC50,[1],0.81 ± 0.03 nM
same,CC50 at 5 days,[2],11300 ± 100 nM
same,Fold-Change,[3],250 ± 66
same,Fold-Change,[4],4587 ± 1003
same,Fold-Change,[5],5.7 ± 0.9
same,Fold-Change,[6],0.6 ± 0.09
same,Fold-Change,[7],27.1 ± 9.5
same,Fold-Change,[8],0.5 ± 0.1
same,Fold-Change,[9],9.0 ± 1.7
same,Fold-Change,[10],575 ± 210
same,Fold-Change,[11],1107 ± 513
same,Fold-Change,[12],1.4 ± 0.2
same,Fold-Change,[13],41.4 ± 17.8
same,Selectivity Index,1b replicon,"50,400"
same,EC50,"1b replicon; Hepatitis C virus, 72 h, three days, luciferase assay",0.5 ± 0.1 nM
same,effects on the cardiovascular and respiratory systems,[14],no effects
same,IC50,[15],1.2 ± 0.1 nM
